The text below walks through data of patent US11472843B2, “Malacidins and methods of use” (The Rockefeller University, priority 2017, dated 2022).

For orientation: MIC means the least concentration at which growth counts as inhibited.

Converted amounts (≈) assume the structure as drawn. Where two headings read alike, the source gives them in different places.

The test system of experiment [1] is Pseudomonas aeruginosa PAO1. As to the kind of experiment: MIC assay, P. aeruginosa. It counts as cell-based. On the procedure: (§1) MIC assays were performed in duplicate in 96-well microtiter plates on the basis of the protocol recommended by the Clinical and Laboratory Standards Institute (Cockerill, 2012, Clinical and Laboratory Standards Institute). All presented data are the average of at least three independent assays. Stock solutions of malacidin or daptomycin (2 mg ml^−1 in H2O) were added to the first well in a row and serially diluted (twofold per transfer) across the microtiter plate. CaCl2 was supplemented to media at a final concentration of 15 mM and fetal bovine serum (ATCC) was added to media (1:10) to test the effect of serum. Overnight cultures of bacteria were diluted 5,000-fold, and 50 μl was used as an inoculum in each well. MIC values were determined by visual inspection after 18 h incubation (30° C., static growth). For the enhanced calcium titration experiments, standard MIC assays were performed with methicillin-resistant Staphylococcus aureus (MRSA) PFGE strain type USA300 in media supplemented with CaCl2 at: 25.0, 18.8, 14.1, 7.03, 3.52, 2.50, 1.76, 0.880, 0.440, 0.250 and 0 mM. To assess the effects of monovalent and divalent cations on malacidin activity, standard MIC assays were performed with MRSA USA300 in media supplemented with 15 mM CaCl2, MgCl2, MnCl2, ZnCl2, SrCl2, NaCl and KCl. To evaluate the effects of pulmonary surfactants on activity against a community-acquired pneumonia-causing pathogen, standard MIC assays were performed with Streptococcus pneumoniae TCH8431 in media supplemented with both 15 mM CaCl1 and Survanta (beractant) at a final concentration of 5, 1, 0.5, 0.25 or 0% (volume/volume (v/v) percent).

The subject of the next experiment is Escherichia coli BAS849. Description: MIC assay, E. coli BAS849. In kind it is cell-based. On the procedure: as §1, with “To evaluate the effects of pulmonary surfactants on activity against a community-acquired pneumonia-causing pathogen, standard MIC assays were performed with Streptococcus pneumoniae TCH8431 in media supplemented with both 15 mM CaCl1 and Survanta (beractant) at a final concentration of 5, 1, 0.5, 0.25 or 0% (volume/volume (v/v) percent).” left out

Experiment [2] has as its system Klebsiella pneumonia ATCC 10031. As to the kind of experiment: MIC assay, Klebsiella pneumonia. It counts as cell-based. On the procedure: as §1
For a further experiment, the system named is MRSA USA300. As to the kind of experiment: Membrane leakage assay (SYTOX green). It counts as cell-based, Staphylococcus aureus. Conditions: 20 μg ml^−1. On the procedure: The effects of malacidin on membrane integrity was assessed using SYTOX green. In brief, single colonies of MRSA USA300 were grown in LB media with and without 15 mM CaCl2 to an OD600 nm of 0.35. Nine hundred microlitres of cells were mixed with 100 μL of 17 μM SYTOX green dye (Thermo Fisher). The resulting mixture was incubated for 5 min at 22° C., and then distributed to a microtiter plate at 50 μl per well. An initial reading of fluorescence pre-antibiotic addition was measured at excitation and emission wavelengths of 488 nm and 523 nm, respectively. Fifty microlitres of antibiotics was added to respective wells at a final concentration of 20 μg ml^−1. Measurements were immediately collected for 10 min. To assess the effects of malacidin on membrane depolarization, similar assays were set up using the membrane potential probe, DiBAC4 (bis-(1,3-dibutylbarbituric acid)trimethine oxonol). Single colonies of MRSA USA300 were grown in LB media with and without 15 mM CaCl2 to an OD600 nm of 0.35. Nine hundred microlitres of cells were mixed with 100 μl of 20 μg ml DiBAC4dye (Thermo Fisher). The resulting mixture was incubated for 5 min at 22° C., and then distributed to a microtiter plate at 50 μl per well. An initial reading of fluorescence pre-antibiotic addition was measured at excitation and emission wavelengths of 492 nm and 515 nm, respectively. Fifty microlitres of antibiotics was added to respective wells at a final concentration of 20 μg ml^−1. Measurements were immediately collected for 10 min. Representative examples from three technical replicates are shown.

For another experiment, the system named is Escherichia coli DH5α. Description: MIC assay, E. coli DH5α. It counts as cell-based. On the procedure:
as §1

Experiment [3] deals with Cryptococcus neoformans ATCC 32045. Description: MIC assay, C. neoformans. It counts as cell-based. Conditions: Cryptococcus neoformans ATCC 32045. On the procedure: as §1
For the next experiment, the system named is S. aureus NRS108. Description: MIC assay, S. aureus NRS108. In kind it is cell-based, Staphylococcus aureus. Conditions: Staphylococcus aureus NRS108; β-lactams, Gentamicin, Kanamycin; read-out: MIC. On the procedure: as §1
The next experiment has as its system S. aureus COL. As to the kind of experiment: MIC assay, S. aureus COL. It counts as cell-based, Staphylococcus aureus. The following applies: Staphylococcus aureus COL; β-lactams; read-out: MIC. On the procedure:
as §1

For the next experiment, the system named is S. aureus NRS146. Description: MIC assay, S. aureus NRS146. In kind it is cell-based, Staphylococcus aureus. The following applies: NRS 146 / VISA; Staphylococcus aureus NRS146; β-lactams, Vancomycin (VISA); read-out: MIC. On the procedure: as §1
Another experiment deals with S. aureus BAA-42. As to the kind of experiment: MIC assay, S. aureus BAA-42. In kind it is cell-based, Staphylococcus aureus. The following applies: BAA42; Staphylococcus aureus BAA-42; β-lactams; read-out: MIC. On the procedure:
as §1

Experiment [4] relates to Candida albicans ATCC 1884. Description: MIC assay, C. albicans. In kind it is cell-based. Conditions: Candida albicans ATCC 1884. On the procedure:
as §1

For experiment [5], the system named is Salmonella enterica IR 715. As to the kind of experiment: MIC assay, Salmonella enterica. In kind it is cell-based. On the procedure:
as §1

Another experiment deals with E. faecium VRE. As to the kind of experiment: MIC assay, E. faecium VRE. Conditions: Enterococcus faecium VRE; Vancomycin (VRE); read-out: MIC. It counts as cell-based, Enterococcus faecium. On the procedure:
as §1

For experiment [6], the system named is Bacillus subtilis 168 IAI. Description: MIC assay, B. subtilis. In kind it is cell-based. Conditions: Bacillus subtilis 168 IAI; read-out: MIC. On the procedure:
as §1

Experiment [7] deals with Streptococcus pneumoniae TCH8431. The following applies: from Silverman et al., 2005; cited from earlier work.
For another experiment, the system named is S. aureus USA300. Description: MIC assay, S. aureus USA300 (MRSA). In kind it is cell-based, Staphylococcus aureus. The following applies: Staphylococcus aureus USA300, β-lactams (Methicillin, Oxacillin, Penicillin). On the procedure: as §1
Another experiment relates to S. aureus NRS140. As to the kind of experiment: MIC assay, S. aureus NRS140. The following applies: Staphylococcus aureus NRS140; β-lactams, Erythromycin, Spectinomycin; read-out: MIC. It counts as cell-based, Staphylococcus aureus. On the procedure: as §1
The subject of experiment [8] is Streptococcus pneumoniae TCH8431. Description: MIC assay, S. pneumoniae. In kind it is cell-based. Conditions: Streptococcus pneumoniae TCH8431; read-out: MIC. On the procedure:
as §1

Another experiment has as its system S. aureus NRS100. As to the kind of experiment: MIC assay, S. aureus NRS100. In kind it is cell-based, Staphylococcus aureus. Conditions: Staphylococcus aureus NRS100; β-lactams, Tetracycline; read-out: MIC. On the procedure: as §1
For the next experiment, the system named is E. faecium Com15. Description: MIC assay, E. faecium Com15. The following applies: Enterococcus faecium Com15. In kind it is cell-based, Enterococcus faecium. On the procedure:
as §1

The test system of experiment [9] is Acinetobacter baumannii ATCC 17978. Description: MIC assay, A. baumannii. It counts as cell-based. On the procedure:
as §1

Experiment [10] has as its system UDP-MurNAc-pentapeptide in MRSA USA300. Description: UDP-MurNAc-pentapeptide accumulation assay. In kind it is cell-based, Staphylococcus aureus. The following applies: 10 μg ml^−1, 60 min, UPLC-MS. On the procedure:
The intracellular accumulation of the cell wall precursor UDP-MurNAc-pentapeptide after treatment of MRSA USA300 with malacidin was assessed as previously described (Schneider et al., […], Antimicrob Agents Ch 53:1610-18). In brief, single colonies of MRSA USA300 were grown in LB media with and without 15 mM CaCl2 to an OD600 nm of 0.6. […] of cells and medium were incubated with a final concentration of 130 μg ml^−1 chloramphenicol for 15 min at 37° C. Antibiotics to be assayed were added at 10 μg ml^−1 and incubated for 60 min at 37° C. Vancomycin, known to form a complex with lipid II, was used as a positive control. Cells were collected by centrifugation, and resuspended in 30 μl dH2O and incubated in boiling water for 15 min. The cell extract was then centrifuged at 14,000 g. Supernatant was analysed for UDP-linked cell wall precursors by a UPLC-MS system. Experiments were performed with biological replicates.

Turning to `CCCCCCCCCC(=O)N[C@@H](Cc1c[nH]c2ccccc12)C(=O)N[C@H](CC(N)=O)C(=O)N[C@@H](CC(=O)O)C(=O)N[C@@H]1C(=O)NCC(=O)N[C@@H](CCCN)C(=O)N[C@@H](CC(=O)O)C(=O)N[C@H](C)C(=O)N[C@@H](CC(=O)O)C(=O)NCC(=O)N[C@H](CO)C(=O)N[C@@H]([C@H](C)CC(=O)O)C(=O)N[C@@H](CC(=O)c2ccccc2N)C(=O)O[C@@H]1C` [Daptomycin, daptomycin, reference compound], the MIC was greater than 100 µg/mL in experiment [1] (read-out: MIC); 50 to 100 µg/mL (≈ 30.9 to 61.7 µM) against Escherichia coli BAS849; greater than 100 µg/mL in experiment [2] (Klebsiella pneumoniae, ATCC10031, read-out: MIC); greater than 100 µg/mL in the experiment with Escherichia coli DH5α (read-out: MIC); greater than 100 µg/mL in experiment [3] (ATCC32045, read-out: MIC); 0.2 to 0.8 µg/mL (≈ 0.123 to 0.494 µM) in the experiment with S. aureus NRS108. For the same compound, the MIC with S. aureus COL was 0.2 to 0.8 µg/mL (≈ 0.123 to 0.494 µM); in the experiment with S. aureus NRS146 it was 0.2 to 0.8 µg/mL (≈ 0.123 to 0.494 µM); in the experiment with S. aureus BAA-42 it was 0.2 to 0.8 µg/mL (≈ 0.123 to 0.494 µM); in [4] (ATCC1884, read-out: MIC) it was greater than 100 µg/mL; in experiment [5] (IR715, read-out: MIC) it was greater than 100 µg/mL; with E. faecium VRE, 0.4 to 2 µg/mL (≈ 0.247 to 1.23 µM). Besides, the MIC in experiment [6] lay in the range of 0.2 to 0.4 µg/mL (≈ 0.123 to 0.247 µM); in the experiment with S. aureus USA300 (read-out: MIC) it was 0.2 to 0.8 µg/mL (≈ 0.123 to 0.494 µM); in the experiment with S. aureus NRS140, 0.2 to 0.8 µg/mL (≈ 0.123 to 0.494 µM); in experiment [8], 0.1 to 0.2 µg/mL (≈ 0.0617 to 0.123 µM); in the experiment on S. aureus NRS100, 0.2 to 0.8 µg/mL (≈ 0.123 to 0.494 µM); in the experiment on E. faecium Com15 (read-out: MIC), 0.4 to 2 µg/mL (≈ 0.247 to 1.23 µM). Also, the MIC in experiment [9] (ATCC17978, range of at least three independent experiments, read-out: MIC) is greater than 100 µg/mL. The “Membrane leakage (SYTOX green or DiBAC4)” value in the experiment with MRSA USA300 (absence of calcium supplementation) was “No membrane leakage”. Further, in the experiment with MRSA USA300 (with calcium (15 mM CaCl2)), the “Membrane leakage (SYTOX green fluorescence)” value was “rapid increase in fluorescence”. In experiment [7], the “Activity in the presence of pulmonary surfactants” value was “loss of activity”.
Consider `CN[C@H](CC(C)C)C(=O)N[C@H]1C(=O)N[C@@H](CC(N)=O)C(=O)N[C@H]2C(=O)N[C@H]3C(=O)N[C@H](C(=O)N[C@H](C(=O)O)c4cc(O)cc(O)c4-c4cc3ccc4O)[C@H](O)c3ccc(c(Cl)c3)Oc3cc2cc(c3O[C@@H]2O[C@H](CO)[C@@H](O)[C@H](O)[C@H]2O[C@H]2C[C@](C)(N)[C@H](O)[C@H](C)O2)Oc2ccc(cc2Cl)[C@H]1O` [vancomycin, reference compound], for which the “Accumulation of cell wall intermediate UDP-MurNAc-pentapeptide” value in [10] is “accumulation of the cell wall intermediate UDP-MurNAc-pentapeptide”.
As to malacidin B, the minimum inhibitory concentration (MIC) (in experiment [1]; in [2]; against Escherichia coli DH5α; in experiment [3]; in [4]; in experiment [5]) was greater than 100 µg/mL each time. For the same compound, the MIC in the experiment with S. aureus USA300 was 0.4 to 0.8 µg/mL; with E. faecium Com15, 0.8 to 2.0 µg/mL; in [9] (range of at least three independent experiments), greater than 100 µg/mL.
